Data published in patent US8795740B2, “Drip tray tablet” (Novapharm Research (Australia) Pty Ltd, priority 2003, dated 2014).

Assay: preservation of enzyme activity in the tablet in use
Type: physicochemical
Conditions: in the non-dissolved part of the tablet
Source text: A preferred boron compound is borax, which the present inventors have found acts to preserve the enzyme activity in use for at least 3 months in the non-dissolved part of the tablet. The present invention thus provides matching between the enzyme activity and tablet dissolution parameters.

## O=BOB(O)OB(O)OB=O [borax, Borax]
  time for which enzyme activity is preserved in use: at least 3 months
